Measured values as given in patent US20250215042A1, “MANNOSE-TARGETED COMPOSITIONS” (GENEVANT SCIENCES GMBH, priority 2022, published 2025).
One block for each molecule: values may come before it.

Columns and labels:
[1] = system: human CD14+ monocyte derived M1 macrophages; test: Binding of biotin-mannose/AF488-streptavidin complex to M1 macrophages (flow cytometry); format: cell-based; conditions: for mannose ligand conjugated fluorescence (ligand binding): M1 macrophages, complex at 0.5, 0.1 and 0.02 μM, 4° C., 1.5 hours; for binding to M1 macrophages, tetra-, hexa- and octa-valent compared: FIG. 3
[2] = system: human CD14+ monocyte derived M2 macrophages; test: Binding of biotin-mannose/AF488-streptavidin complex to M2 macrophages (flow cytometry); format: cell-based; conditions: FIG. 2; for mannose ligand conjugated fluorescence (ligand binding): M2 macrophages, complex at 0.5, 0.1 and 0.02 μM, 4° C., 1.5 hours
M1 macrophages = test: D-mannose competition with Cy3-tetra-mannose-siCD45 uptake in M1 macrophages; format: cell-based, human; conditions: competitor 139 mM, 5 minutes before conjugate 5 μg/mL, 1 hour; FIG. 5
Method: OptiMEM containing D-mannose or D-galactose was added onto testing cells to reach the final concentration of 139 mM and incubated at 37° C. for 5 minutes. […] The cells were then washed with PBS 3 times and fixed with 4% PFA for 10 minutes at room temperature. The chambers were removed from the slides and the cells were mounted with one drop of mounting media containing DAPI staining for the nuclei. The slides were covered, sealed and analyzed under fluorescent microscope.

SMILES: O=C(CCCC[C@@H]1SC[C@@H]2NC(=O)N[C@@H]21)NCC(=O)Nc1cc(C(=O)NCCOCCOCCO[C@H]2O[C@H](CO)[C@@H](O)[C@H](O)[C@@H]2O)cc(C(=O)NCCOCCOCCO[C@H]2O[C@H](CO)[C@@H](O)[C@H](O)[C@@H]2O)c1 [Compound 35]
mannose ligand conjugated fluorescence (ligand binding) ([1]; FIG. 2): Dose dependent increase
mannose ligand conjugated fluorescence (ligand binding) [2]: Dose dependent increase

SMILES: O=C(CC[C@H](NC(=O)CCCC[C@H]1SC[C@H]2NC(=O)N[C@H]21)C(=O)NCC(=O)Nc1cc(C(=O)NCCOCCOCCO[C@H]2O[C@H](CO)[C@@H](O)[C@H](O)[C@@H]2O)cc(C(=O)NCCOCCOCCO[C@H]2O[C@H](CO)[C@@H](O)[C@H](O)[C@@H]2O)c1)NCC(=O)Nc1cc(C(=O)NCCOCCOCCO[C@H]2O[C@H](CO)[C@@H](O)[C@H](O)[C@@H]2O)cc(C(=O)NCCOCCOCCO[C@H]2O[C@H](CO)[C@@H](O)[C@H](O)[C@@H]2O)c1 [Compound 36]
binding affinity ranked by valency (mono-, di-, tetra-valent) ([1]; M1 cells, FIG. 2): highest binding affinity
mannose ligand conjugated fluorescence (ligand binding) ([1]; FIG. 2): Dose dependent increase
binding affinity ranked by valency (mono-, di-, tetra-valent) ([2]; M2 cells): highest binding affinity
mannose ligand conjugated fluorescence (ligand binding) [2]: Dose dependent increase

SMILES: O=C[C@H](O)[C@@H](O)[C@@H](O)[C@H](O)CO [D-Galactose]
competitive inhibition of uptake of Cy3-tetra-mannose-siCD45 (M1 macrophages): no competitive binding effect

SMILES: O=C[C@@H](O)[C@@H](O)[C@H](O)[C@H](O)CO [D-mannose]
competitive inhibition of uptake of Cy3-tetra-mannose-siCD45 (M1 macrophages): substantially inhibited the uptake

Second part, led by results:

binding to M1 macrophages, tetra-, hexa- and octa-valent compared ([1]; listed as Hexavalent mannose ligand): further increased binding
SMILES: O=C(CCC(CCC(=O)NCC(=O)Nc1cc(C(=O)NCCOCCOCCO[C@H]2O[C@H](CO)[C@@H](O)[C@H](O)[C@@H]2O)cc(C(=O)NCCOCCOCCO[C@H]2O[C@H](CO)[C@@H](O)[C@H](O)[C@@H]2O)c1)(CCC(=O)NCC(=O)Nc1cc(C(=O)NCCOCCOCCO[C@H]2O[C@H](CO)[C@@H](O)[C@H](O)[C@@H]2O)cc(C(=O)NCCOCCOCCO[C@H]2O[C@H](CO)[C@@H](O)[C@H](O)[C@@H]2O)c1)NC(=O)CCCC[C@H]1SC[C@@H]2NC(=O)N[C@@H]21)NCC(=O)Nc1cc(C(=O)NCCOCCOCCO[C@H]2O[C@H](CO)[C@@H](O)[C@H](O)[C@@H]2O)cc(C(=O)NCCOCCOCCO[C@H]2O[C@H](CO)[C@@H](O)[C@H](O)[C@@H]2O)c1 [Compound 37]
binding to M1 macrophages, tetra-, hexa- and octa-valent compared ([1]; listed as hexavalent mannose): highest binding affinity to M1 macrophages

binding to M1 macrophages, tetra-, hexa- and octa-valent compared [1]: did not show additional benefit
SMILES: O=C(CC[C@H](NC(=O)CC[C@H](NC(=O)CCCC[C@@H]1SC[C@@H]2NC(=O)N[C@@H]21)C(=O)N[C@@H](CCC(=O)NCC(=O)Nc1cc(C(=O)NCCOCCOCCO[C@H]2O[C@H](CO)[C@@H](O)[C@H](O)[C@@H]2O)cc(C(=O)NCCOCCOCCO[C@H]2O[C@H](CO)[C@@H](O)[C@H](O)[C@@H]2O)c1)C(=O)NCC(=O)Nc1cc(C(=O)NCCOCCOCCO[C@H]2O[C@H](CO)[C@@H](O)[C@H](O)[C@@H]2O)cc(C(=O)NCCOCCOCCO[C@H]2O[C@H](CO)[C@@H](O)[C@H](O)[C@@H]2O)c1)C(=O)NCC(=O)Nc1cc(C(=O)NCCOCCOCCO[C@H]2O[C@H](CO)[C@@H](O)[C@H](O)[C@@H]2O)cc(C(=O)NCCOCCOCCO[C@H]2O[C@H](CO)[C@@H](O)[C@H](O)[C@@H]2O)c1)NCC(=O)Nc1cc(C(=O)NCCOCCOCCO[C@H]2O[C@H](CO)[C@@H](O)[C@H](O)[C@@H]2O)cc(C(=O)NCCOCCOCCO[C@H]2O[C@H](CO)[C@@H](O)[C@H](O)[C@@H]2O)c1 [Compound 38]

mannose ligand conjugated fluorescence (ligand binding) ([1]; FIG. 2): Dose dependent increase
mannose ligand conjugated fluorescence (ligand binding) [2]: Dose dependent increase
SMILES: O=C(CCCC[C@@H]1SC[C@@H]2NC(=O)N[C@@H]21)NCCCCCCOC1O[C@H](CO)[C@@H](O)[C@H](O)[C@@H]1O (stereo partly shown) [Compound 39]
